# Values quoted from earlier work as cited in article PMC5501742 (Cancer discovery, 2017).
# Details: cited from earlier work
compound,measurement,value
Nc1cc(C(F)(F)F)c(-c2cc(N3CCOCC3)nc(N3CCOCC3)n2)cn1 [Buparlisib],frequent treatment-related AEs,"rash, hyperglycemia, diarrhea, and mucositis"
